The test system of data set [1] is Klebsiella pneumoniae ATCC 700603. The data set can be described thus: MIC, broth microdilution (CLSI). The format is cell-based. To be noted: Klebsiella pneumoniae, ATCC700603; K. pneumoniae ATCC 700603; 16-20 h; mode of three experiments; read-out: MIC.
Data set [2] relates to Acinetobacter baumannii NCTC 13420. As to the kind of experiment: MIC, broth microdilution (CLSI). The format is cell-based. The conditions noted are these: Acinetobacter baumannii, NCTC13420; A. baumannii NCTC 13420; 16-20 h; mode of three experiments; read-out: MIC.
Data set [3] deals with Escherichia coli ATCC 25922. As to the kind of experiment: MIC, broth microdilution (CLSI). To be noted: Escherichia coli, ATCC25922; E. coli ATCC 25922; 16-20 h; mode of three experiments; read-out: MIC. In kind it is cell-based.
Data set [4] deals with Enterobacter cloacae NCTC 13406. The data set can be described thus: MIC, broth microdilution (CLSI). The format is cell-based. To be noted: Enterobacter cloacae, NCTC13406; E. cloacae NCTC 13406; 16-20 h; mode of three experiments; read-out: MIC.
Data set [5] concerns Staphylococcus aureus ATCC 29213. As to the kind of experiment: MIC, broth microdilution (CLSI). In kind it is cell-based. The conditions noted are these: Staphylococcus aureus, ATCC29213; S. aureus ATCC 29213; 16-20 h; mode of three experiments; read-out: MIC.
The test system of data set [6] is Haemophilus influenzae ATCC 49247. The data set can be described thus: MIC, broth microdilution (CLSI). The format is cell-based. The conditions noted are these: Haemophilus influenzae, ATCC49247; H. influenzae ATCC 49247; 16-20 h; mode of three experiments; read-out: MIC.
In data set [7] the test system is Streptococcus pneumoniae ATCC 49619. As to the kind of experiment: MIC, broth microdilution (CLSI). To be noted: Streptococcus pneumoniae, ATCC49619; S. pneumoniae ATCC 49619; 16-20 h; mode of three experiments; read-out: MIC. The format is cell-based.
Data set [8] has as its system HepG2 ATCC HB-8065. The data set can be described thus: Human cell viability assay (CellTiter-Glo). In kind it is cell-based. The conditions noted are these: for IC50: Homo sapiens, HepG2 cell viability, 24 h with compound, range 1-128 μg/mL; for toxicity against HepG2 human hepatic cell line (in words): summary of Table 3. The method, then: Compounds are assessed for potential non-specific cytotoxic effects against a human hepatic cell line (HepG2 ATCC HB-8065). HepG2 cells are seeded at 20,000 cells/well in 96-well microtitre plates in minimal essential medium (MEM) supplemented with a final concentration of 10% FBS and 1 mM sodium pyruvate. After 24 h compound dilutions are prepared in Dulbecco's minimum essential media (DMEM) supplemented with final concentrations of 0.001% FBS, 0.3% bovine albumin and 0.02% HEPES and added to cells. Compounds are tested in two-fold serial dilutions over a final concentration range of 1-128 μg/mL in a final DMSO concentration of 1% vol/vol. Chlorpromazine is used as a positive control. Cells are incubated with compound at 37° C. and 5% CO2 for a further 24 h, after which time the CellTiter-Glo reagent (Promega) is added. Luminescence is measured on a BMG Omega plate reader. Data are analysed using GraphPad Prism software to determine the concentration of compound that inhibits cell viability by fifty percent (IC50).

Data set [9] relates to Pseudomonas aeruginosa ATCC 27853. The data set can be described thus: MIC, broth microdilution (CLSI). To be noted: Pseudomonas aeruginosa, ATCC27853; P. aeruginosa ATCC 27853; 16-20 h; mode of three experiments; read-out: MIC. The format is cell-based.
Data set [10] has as its system E. coli MG1655 D87G. In kind it is cell-based, Escherichia coli. To be noted: compared to the isogenic parent strain E. coli MG1655; D87G mutation on DNA gyrase subunit GyrA.
The test system of data set [11] is E. coli MG1655 S83L. The format is cell-based, Escherichia coli. The conditions noted are these: compared to the isogenic parent strain E. coli MG1655; S83L mutation on DNA gyrase subunit GyrA.
Data set [12] concerns E. coli NCTC 13476. The data set can be described thus: MIC, broth microdilution (CLSI). The format is cell-based, Escherichia coli. To be noted: Escherichia coli, NCTC13476, 16-20 h, mode of three experiments, read-out: MIC.
Data set [13] relates to Acinetobacter baumannii ATCC 19606. As to the kind of experiment: MIC, broth microdilution (CLSI). The format is cell-based. To be noted: Acinetobacter baumannii, ATCC19606; A. baumannii ATCC 19606; 16-20 h; mode of three experiments; read-out: MIC.
The subject of data set [14] is E. coli ATCC BAA-2452. The data set can be described thus: MIC, broth microdilution (CLSI). In kind it is cell-based, Escherichia coli. The conditions noted are these: Escherichia coli, 16-20 h, mode of three experiments, read-out: MIC.

In brackets after ≈: the same amount, converted by molar mass.

In the case of `NCCCOc1ccc2ccc(=O)n(CCCN3CC4CN(c5ccc6c(n5)NC(=O)CO6)C(=O)OC4C3)c2n1` (stereo not drawn) [Compound 6, rel-1-{3-[(4aS*,7aR*)-2-oxo-3-{3-oxo-2H,3H,4H-pyrido[3,2-b][1,4]oxazin-6-yl}-octahydropyrrolo[3,4-e][1,3]oxazin-6-yl]propyl}-7-(3-aminopropoxy)-1,2-dihydro-1,8-naphthyridin-2-one], the MIC was over 100 µg/mL in [1]; over 100 µg/mL in data set [2]; 1 to 10 µg/mL (≈ 1.82 to 18.2 µM) in [3]; over 100 µg/mL in [4]; 1 to 10 µg/mL (≈ 1.82 to 18.2 µM) in [5]; over 100 µg/mL in data set [6]. The MIC in data set [7] lay in the range of 1 to 10 µg/mL (≈ 1.82 to 18.2 µM); in data set [9] it was 10 to 100 µg/mL (≈ 18.2 to 182 µM). In addition, the IC50 in data set [8] is over 100 µg/mL.
In the case of `N#Cc1ccc2ccc(=O)n(CCCN3C[C@H]4CN(c5ccc6c(n5)NC(=O)CO6)C(=O)O[C@@H]4C3)c2c1` (relative stereo) [Compound 14, rel-1-{3-[(4aS*,7aR*)-2-oxo-3-{3-oxo-2H,3H,4H-pyrido[3,2-b]1,4]oxazin-6-yl}-octahydropyrrolo[3,4-e][1,3]oxazin-6-yl]propyl}-2-oxo-1,2-dihydroquinoline-7-carbonitrile], the “Fold increase in MIC against E. coli MG1655 D87G” value in [10] was 2 fold. Also, the MIC in data set [1] was 1 to 10 µg/mL (≈ 2 to 20 µM); in data set [2], under 1 µg/mL; in data set [3] it was under 1 µg/mL; in [12], 1 to 10 µg/mL (≈ 2 to 20 µM); in [13], 1 to 10 µg/mL (≈ 2 to 20 µM); in [4], 1 to 10 µg/mL (≈ 2 to 20 µM). Moreover, the MIC in [5] was under 1 µg/mL; in [6], under 1 µg/mL; in [7] it was under 1 µg/mL; in [14], under 1 µg/mL; in data set [9], 1 to 10 µg/mL (≈ 2 to 20 µM). Besides, in [11], the “Fold increase in MIC against E. coli MG1655 S83L” value stood at 4 fold. The IC50 in [8] lay within 10 to 100 µg/mL (≈ 20 to 200 µM). In addition, the “toxicity against HepG2 human hepatic cell line (in words)” value in data set [8] is “acceptable level of hepatic toxicity”.
Consider `NCCCOc1ccc2ccc(=O)n(CCN3C[C@@H]4CN(c5ccc6c(n5)NC(=O)CO6)C(=O)O[C@H]4C3)c2n1` (relative stereo) [Compound 8], for which the MIC in data set [1] is over 100 µg/mL; in [2] it was over 100 µg/mL; in data set [3] it was 10 to 100 µg/mL (≈ 18.7 to 187 µM); in [4], over 100 µg/mL; in data set [5], 1 to 10 µg/mL (≈ 1.87 to 18.7 µM); in data set [6], over 100 µg/mL. In addition, the MIC in [7] was in the range of 1 to 10 µg/mL (≈ 1.87 to 18.7 µM); in [9], 10 to 100 µg/mL (≈ 18.7 to 187 µM). In addition, the IC50 in data set [8] is over 100 µg/mL.
As for `O=C1COc2ccc(N3C[C@@H]4CN(CCCn5c(=O)ccc6ccccc65)C[C@@H]4OC3=O)nc2N1` (relative stereo) [Compound 4, rel-1-{3-[(4aS*,7aR*)-2-oxo-3-{3-oxo-2H,3H,4H-pyrido[3,2-b][1,4]oxazin-6-yl}-octahydropyrrolo[3,4-e][1,3]oxazin-6-yl]propyl}-1,2-dihydroquinolin-2-one], the MIC in [1] is 1 to 10 µg/mL (≈ 2.1 to 21 µM); in data set [2], under 1 µg/mL; in data set [3], under 1 µg/mL; in [4], under 1 µg/mL; in data set [5], under 1 µg/mL; in [9], 1 to 10 µg/mL (≈ 2.1 to 21 µM). For the same compound, the IC50 in [8] is over 100 µg/mL.
`COc1ncc2ccc(=O)n(CCN3C[C@H]4CN(c5ccc6c(n5)NC(=O)CO6)C(=O)O[C@@H]4C3)c2n1` (relative stereo) [Compound 13, rel-(4aS*,7aR*-6-(2-{2-methoxy-7-oxo-7H,8H-pyrido[2,3-d]pyrimidin-8-yl}ethyl)-3-{3-oxo-2H,3H,4H-pyrido[3,2-b][1,4]oxazin-6-yl}-octahydropyrrolo[3,4-e][1,3]oxazin-2-one]: the MIC is 10 to 100 µg/mL (≈ 20.3 to 203 µM) in data set [1]; 10 to 100 µg/mL (≈ 20.3 to 203 µM) in data set [2]; 10 to 100 µg/mL (≈ 20.3 to 203 µM) in data set [4]; under 1 µg/mL in data set [5]; 1 to 10 µg/mL (≈ 2.03 to 20.3 µM) in data set [6]; 1 to 10 µg/mL (≈ 2.03 to 20.3 µM) in data set [7]. Further, the MIC in data set [9] fell in the range of 10 to 100 µg/mL (≈ 20.3 to 203 µM). In [8], the concentration for half-maximal inhibition (IC50) was in the range of 1 to 10 µg/mL (≈ 2.03 to 20.3 µM).
On to `O=C1COc2ccc(N3C[C@H]4CN(CCn5c(=O)ccc6ccc(OCCO)nc65)C[C@@H]4OC3=O)nc2N1` (relative stereo) [Compound 5], for which the MIC in data set [1] is over 100 µg/mL; in data set [2] it was over 100 µg/mL; in [3], 10 to 100 µg/mL (≈ 19.1 to 191 µM); in [4], 10 to 100 µg/mL (≈ 19.1 to 191 µM); in [5], under 1 µg/mL; in [6] it was 1 to 10 µg/mL (≈ 1.91 to 19.1 µM). For the same compound, the MIC in data set [7] lay within 1 to 10 µg/mL (≈ 1.91 to 19.1 µM); in data set [9] it was 10 to 100 µg/mL (≈ 19.1 to 191 µM). The IC50 in [8] is over 100 µg/mL.
Consider `COc1ncc2ccc(=O)n(CCCN3CC4CN(c5ccc6c(n5)NC(=O)CO6)C(=O)OC4C3)c2n1` (stereo not drawn) [Compound 11, rel-(4aS*,7aR*)-6-(3-{2-methoxy-7-oxo-7H,8H-pyrido[2,3-d]pyrimidin-8-yl}propyl)-3-{3-oxo-2H,3H,4H-pyrido[3,2-b][1,4]oxazin-6-yl}-octahydropyrrolo[3,4-e][1,3]oxazin-2-one], for which the MIC in data set [1] is 10 to 100 µg/mL (≈ 19.7 to 197 µM); in [2] it was 10 to 100 µg/mL (≈ 19.7 to 197 µM); in data set [3], 1 to 10 µg/mL (≈ 1.97 to 19.7 µM); in [4], 1 to 10 µg/mL (≈ 1.97 to 19.7 µM); in [5], under 1 µg/mL; in [6] it was under 1 µg/mL. The MIC was under 1 µg/mL in [7] and 10 to 100 µg/mL (≈ 19.7 to 197 µM) in data set [9]. Further, in data set [8], the 50% inhibitory concentration (IC50) was 10 to 100 µg/mL (≈ 19.7 to 197 µM). In data set [8], the “toxicity against HepG2 human hepatic cell line (in words)” value is “acceptable level of hepatic toxicity”.
Consider `C[C@H]1COc2c(N3CCN(C)CC3)c(F)cc3c(=O)c(C(=O)O)cn1c23` [LEV, levofloxacin, reference compound], for which the “Fold increase in MIC against E. coli MG1655 D87G” value in [10] was found to be 8 fold. Also, in [11], the “Fold increase in MIC against E. coli MG1655 S83L” value is on record as 8 fold.
As for `COc1ccc2ccc(=O)n(CCN3CC4CN(c5ccc6c(n5)NC(=O)CO6)C(=O)OC4C3)c2n1` (stereo not drawn) [Compound 16, rel-1-{2-[(4aR*,7aR*)-2-oxo-3-{3-oxo-2H,3H,4H-pyrido[3,2-b][1,4]oxazin-6-yl}-octahydropyrrolo[3,4-e][1,3]oxazin-6-yl]ethyl}-7-methoxy-1,2-dihydro-1,8-naphthyridin-2-one], the MIC was 10 to 100 µg/mL (≈ 20.3 to 203 µM) in data set [1]; under 1 µg/mL in [2]; under 1 µg/mL in [3]; under 1 µg/mL in data set [13]; 1 to 10 µg/mL (≈ 2.03 to 20.3 µM) in data set [4]; under 1 µg/mL in data set [5]. In addition, the MIC in data set [6] was under 1 µg/mL; in data set [7] it was under 1 µg/mL; in [9] it was 10 to 100 µg/mL (≈ 20.3 to 203 µM). Besides, the IC50 in [8] was over 100 µg/mL.

The values are drawn from patent US20210179636A1, “ANTIBACTERIAL COMPOUNDS” (priority 2016, published 2021).
